The subject of one series is BALB/c mice. Briefly: Toxicity and movement activity after i.v. injection. To be noted: for Movement Activities: BALB/c (around 20 gm) mice, i.v. single dose 75 μl of 1 mM, within 30 minutes; for toxicity by mouse movements: BALB/c mice, i.v. single dose 75 μl of 1 mM per mouse, movements within 30 minutes, observed up to one week. The method, then: To design a MTD peptide anti-cancer drug, the MTD peptide was fused to various known tumor-homing motifs through its N-terminal or C-terminal region, and a linker was introduced between these two motifs to impart flexibility and minimize steric hindrance (Figure 1A, Supplementary Table S1). The MTD peptides fused with tumor-homing motifs (hereafter designated TU:MTDs) were synthesized as linear or cyclic entities using L-amino acids (Supplementary Table S1), and were evaluated for their killing activity using CT26 cells in vitro (Supplementary Figure S1). […] Thus, BALB/c mouse movements were also evaluated within 30 minutes of the intravenous injection of a single dose of 75 μl of 1 mM TU:MTDs per mouse. […] We also searched for a TU:MTD with a potent in vivo effect by observing tumor volumes in three BALB/c mice bearing CT26 adenocarcinoma that were injected with 100 μl of 1 mM TU:MTDs per day for 2 or 3 consecutive days (Figure 1B). […] The tumor-homing motif of TU17:MTD has a “RPARPAR” sequence containing the C-end rule (CendR) element that has known to bind to neuropilin-1 (NRP-1), although the “RPARPAR” sequence is located at the N-terminus of the MTD rather than at the C-terminus. […]
1 mM) were i.v. injected into BALB/c (around 20 gm) mice at a single dose. “Slow” means not moving around in the cage.
“Normal” means normally moving around in the cage. “Toxic” means necrosis in tail vein within 2 ~ 3 days after injection.
(§1) Abbreviation: NR; no regression, ND; not determined. […]

A short description of a further series: Serum AST and ALT assays. The class given is in vivo, mice. The method, then: To assay the activities of ALT and AST, mouse serum was prepared by centrifuging blood at 2500 × g for 15 minutes at 4°C. Enzyme activities were determined, according to the manufacturer's instructions. […]
the first injection of the peptides. […]
necrosis in tail vein upon injection.
“Slow” means not moving around in the cage.
“Normal” means normally moving around in the cage.
as §1
aminotransferase) in mice treated with TU17:MTD
Treatment Serum aminotransferase (karman units/ml)
White blood Hemoglobin Platelets Neutrophils Lymphocyts Monocytes
Treatments cells (g/dl) (×103 cell/μl) (%) (%) (%)

Another series deals with CT26 cells. Briefly: XTT cell viability / killing activity in CT26 cells. To be noted: CT26 cells, TU:MTDs 0 ~ 20 μM, 30 minutes, XTT. The series is classed as cell-based. Here is the method:
Figure 1 Identification of TU17:MTD as a tumor targeting peptide (A) Schematic diagram of the fusion peptides consisting of the tumor-homing motif, linker, and mitochondrial targeting domain (MTD). (B) Tumors were generated over 2 weeks after s.c. injection of CT26 cells into the backs of BALB/c mice. When tumor volumes reached palpable size, the indicated TU:MTDs (100 μl of 1 mM TU:MTDs) or PBS were administrated i.v. twice or three times. […] Arrows indicate the points of peptide injection. P values < 0.02 (control group vs TU17:MTD at day 5, 6, 7, 8, and 9) (C) HCT116, HeLa, A549, MCF-7, PC3, and BJAB cells were treated with TU17:MTD (0 ~ 20 μM) for 30 minutes, and cell viability was monitored using XTT assays. *P < 0.05 (D) Primary splenocytes and macrophages were treated with TU17:MTD (0 ~ 20 μM) for 30 minutes, and cell viability was monitored by XTT assay. *P < 0.05 (E) CT26 cells were treated with R8:MTD, TU17:MTD, TU17-2:MTD or TU17:MTD^4A (0 ~ 40 μM) for 4 hours, and cell viability was monitored by XTT assay. Results in C to E are expressed as means ± SD (triplicates), and are representative of at least two independent experiments. P values are for experimental groups versus controls and were calculated using Dunnett's t-test. *P < 0.05.
Figure 5 Anti-NRP-1 antibody blocks TU17:MTD-induced necrosis (A) CT26 cells (2 × 10^4 cells/cm^2) were treated with TU17:MTD-FAM (500 nM) peptide or TU17^mut:MTD (500 nM) peptide. […] The viability was measured by using the XTT assay. *P < 0.05, **P < 0.01. […] The percentage of FAM-positive cells (%) were determined (n = over 200 cells). *P < 0.05, ***P < 0.001.
Cells were cultured in 96 well plates (2 × 10^5) overnight and treated with TU:MTDs. Cell viabilities were assessed using a XTT-based colorimetric assay kit, according to the manufacturer's instructions. […]
Supplementary FigureS1: Killing activity of TU:MTDs in CT26 cells. CT26 cells were treated with TU:MTDs (0 ~ 20 μM) for 30 minutes, and cell viability was monitored using XTT assays. […]

[1] abbreviates: CCl4-treated mice, chemically-induced liver damage model.

Bridge positions count the residues as written; N and C are the ends. Ends that are not written are not given here. Peptide text beside a SMILES is read from it.

For KLLNLISKLFGGRLLRLLRLLR [TU16:MTD], in the series on BALB/c mice, the “Movement Activities” value was “Normal” and the “toxicity by mouse movements” value is reported as “no apparent toxicities”.

As to WDLAWMFRLPVGKLLNLISKLF [TU5:MTD], in the series with BALB/c mice, the “Movement Activities” value was “Normal” and the “toxicity by mouse movements” value is given as “no apparent toxicities”.

For `CC[C@H](C)[C@H](NC(=O)[C@H](CC(C)C)NC(=O)[C@H](CC(N)=O)NC(=O)[C@H](CC(C)C)NC(=O)[C@H](CC(C)C)NC(=O)[C@@H](N)CCCCN)C(=O)N[C@@H](CO)C(=O)N[C@@H](CCCCN)C(=O)N[C@@H](CC(C)C)C(=O)N[C@@H](Cc1ccccc1)C(=O)N[C@@H](CS)C(=O)NCC(=O)N[C@@H](CCCNC(=N)N)C(=O)N[C@@H](CC(=O)O)C(=O)N[C@@H](CCCCN)C(=O)NCC(=O)N1CCC[C@H]1C(=O)N[C@@H](CC(=O)O)C(=O)N[C@@H](CS)C(=O)O` [TU7:MTD] (H-KLLNLISKLFCGRDKGPDC-OH), the “toxicity by mouse movements” value with BALB/c mice is listed as “no apparent toxicities”.

In the case of KLLNLISKLFGGCRGDK [TU22:MTD], in the series on BALB/c mice, the “Movement Activities” value is recorded as “Normal” and the “toxicity by mouse movements” value is on record as “no apparent toxicities”.

`CC[C@H](C)[C@H](NC(=O)[C@H](CC(C)C)NC(=O)[C@H](CC(N)=O)NC(=O)[C@H](CC(C)C)NC(=O)[C@H](CC(C)C)NC(=O)[C@H](CCCCN)NC(=O)CNC(=O)CNC(=O)[C@H](CS)NC(=O)[C@H](CCCNC(=N)N)NC(=O)CNC(=O)[C@H](CC(N)=O)NC(=O)[C@@H](N)CS)C(=O)N[C@@H](CO)C(=O)N[C@@H](CCCCN)C(=O)N[C@@H](CC(C)C)C(=O)N[C@@H](Cc1ccccc1)C(=O)O` [TU1:MTD] (H-CNGRCGGKLLNLISKLF-OH): in the series with BALB/c mice, the “Movement Activities” value is listed as “Slow” and the “toxicity by mouse movements” value is listed as “toxic”.

For `ClC(Cl)(Cl)Cl` [CCl4], in “Serum AST and ALT assays” (setting [1]), the “Serum aminotransferase ALT” value came to 558.8 ± 7.2 karman units/ml and the “Serum aminotransferase AST” value is reported as 42.8 ± 3.7 karman units/ml. In “Serum AST and ALT assays” (mice), the “serum levels of AST and ALT” value is “substantially higher”.

For the molecule “KLLNLISKLFCRGDKGPDC (disulfide 11-19 (inferred)) [TU10:MTD]”, in the series on BALB/c mice, the “Movement Activities” value is recorded as “Slow” and the “toxicity by mouse movements” value is recorded as “toxic”.

As to CRGDKGGKLLNLISKLF [TU21:MTD], in the series with BALB/c mice, the “Movement Activities” value is “Slow” and the “toxicity by mouse movements” value was “toxic”.

For RLLRLLRLLRGGKLLNLISKLF [TU15:MTD], in the series on BALB/c mice, the “Movement Activities” value is “Slow” and the “toxicity by mouse movements” value is on record as “toxic”.

Take KLLNLISKLFGGCGKRK [TU20:MTD]: in the series on BALB/c mice, the “Movement Activities” value is recorded as “Normal” and the “toxicity by mouse movements” value is on record as “no apparent toxicities”.

Regarding WIFPWIQLKLLNLISKLF [TU4:MTD], in the series with BALB/c mice, the “Movement Activities” value is on record as “Slow” and the “toxicity by mouse movements” value is “toxic”.

With KLLNLISKLFGGRPARPAR [TU18:MTD], in the series with BALB/c mice, the “Movement Activities” value is listed as “Slow” and the “toxicity by mouse movements” value was “toxic”.

For the molecule `CC[C@H](C)[C@H](NC(=O)[C@H](CC(C)C)NC(=O)[C@H](CC(N)=O)NC(=O)[C@H](CC(C)C)NC(=O)[C@H](CC(C)C)NC(=O)[C@H](CCCCN)NC(=O)[C@H](CS)NC(=O)[C@H](CC(=O)O)NC(=O)[C@@H]1CCCN1C(=O)CNC(=O)[C@H](CCCCN)NC(=O)[C@H](CC(=O)O)NC(=O)[C@H](CCCNC(=N)N)NC(=O)CNC(=O)[C@@H](N)CS)C(=O)N[C@@H](CO)C(=O)N[C@@H](CCCCN)C(=O)N[C@@H](CC(C)C)C(=O)N[C@@H](Cc1ccccc1)C(=O)O` [TU6:MTD] (H-CGRDKGPDCKLLNLISKLF-OH), in the series with BALB/c mice, the “Movement Activities” value was “Normal” and the “toxicity by mouse movements” value is recorded as “no apparent toxicities”.

Regarding `CC[C@H](C)[C@H](NC(=O)[C@H](CC(C)C)NC(=O)[C@H](CC(N)=O)NC(=O)[C@H](CC(C)C)NC(=O)[C@H](CC(C)C)NC(=O)[C@H](CCCCN)NC(=O)[C@H](CS)NC(=O)[C@H](CC(=O)O)NC(=O)[C@@H]1CCCN1C(=O)CNC(=O)[C@H](CCCCN)NC(=O)[C@H](CC(=O)O)NC(=O)CNC(=O)[C@H](CCCNC(=N)N)NC(=O)[C@@H](N)CS)C(=O)N[C@@H](CO)C(=O)N[C@@H](CCCCN)C(=O)N[C@@H](CC(C)C)C(=O)N[C@@H](Cc1ccccc1)C(=O)O` [TU9:MTD] (H-CRGDKGPDCKLLNLISKLF-OH), in the series on BALB/c mice, the “Movement Activities” value was “Normal” and the “toxicity by mouse movements” value is reported as “no apparent toxicities”.

With `CC[C@H](C)[C@H](NC(=O)[C@H](CC(C)C)NC(=O)[C@H](CC(N)=O)NC(=O)[C@H](CC(C)C)NC(=O)[C@H](CC(C)C)NC(=O)[C@H](CCCCN)NC(=O)CNC(=O)CNC(=O)[C@H](CS)NC(=O)CNC(=O)[C@H](CCCNC(=N)N)NC(=O)[C@@H](NC(=O)[C@H](CCCNC(=N)N)NC(=O)[C@H](CCCCN)NC(=O)[C@H](CC(N)=O)NC(=O)CNC(=O)[C@@H](N)CS)[C@@H](C)O)C(=O)N[C@@H](CO)C(=O)N[C@@H](CCCCN)C(=O)N[C@@H](CC(C)C)C(=O)N[C@@H](Cc1ccccc1)C(=O)O` [TU3:MTD] (H-CGNKRTRGCGGKLLNLISKLF-OH), in the series on BALB/c mice, the “Movement Activities” value is “Normal” and the “toxicity by mouse movements” value was “no apparent toxicities”.

With `CC[C@H](C)[C@H](NC(=O)[C@H](CC(C)C)NC(=O)[C@H](CC(N)=O)NC(=O)[C@H](CC(C)C)NC(=O)[C@H](CC(C)C)NC(=O)[C@@H](N)CCCCN)C(=O)N[C@@H](CO)C(=O)N[C@@H](CCCCN)C(=O)N[C@@H](CC(C)C)C(=O)N[C@@H](Cc1ccccc1)C(=O)N[C@@H](CS)C(=O)NCC(=O)N[C@@H](CCCNC(=N)N)C(=O)N[C@@H](CC(=O)O)C(=O)N[C@@H](CCCCN)C(=O)N[C@@H](CCCNC(=N)N)C(=O)N[C@@H](CC(C)C)C(=O)N[C@@H](Cc1ccc(O)cc1)C(=O)N[C@@H](CC(=O)O)C(=O)N[C@@H](CS)C(=O)O` [TU8:MTD] (H-KLLNLISKLFCGRDKRLYDC-OH), the “cytotoxicity to CT26 cells in vitro” value in the series with CT26 cells was “not cytotoxic”. In the series on BALB/c mice, the “Movement Activities” value is on record as “Dead” and the “toxicity by mouse movements” value is recorded as “highly toxic”.

Turning to CGKRKGGKLLNLISKLF [TU19:MTD], in the series on BALB/c mice, the “Movement Activities” value is “Normal” and the “toxicity by mouse movements” value is on record as “no apparent toxicities”.

(Values after paper PMC5078025, “Necrosis-inducing peptide has the beneficial effect on killing tumor cells through neuropilin (NRP-1) targeting” (Oncotarget, 2016).)
